US7052705B2, “Anti-angiogenic peptides” (Regeneron Pharmaceuticals, Inc., priority 2001, dated 2006)
Ends that are not written are not given here. Peptide text beside a SMILES is read from it.

Key:
VEGFR-2/NP-1 = system: T1, VEGFR-2/NP-1; assay type: binding, human
T1 construct: In the COS-1 cells overexpressing the full-length VEGFR-2; the NP-1 cDNA used for these experiments would only produce the full-length receptor; expressed in transfected cells; host or cells: COS-1
Procedure: (§1) When co-expressing VEGFR-2 and NP-1, 5 μg of VEGFR-2 cDNA and 2 μg of NP-1 cDNA are used. When the receptors are expressed in isolation, for VEGFR-2, 5 μg of VEGFR-2 cDNA and 2 μg of mock vector cDNA are used.
(§2) After generation of the liposome/DNA solution, the cells are rinsed one time with 5 ml Optimem I, then replaced with another 5 ml of Optimem I containing the liposome/DNA solution. The cells are incubated for two to four hours at 37° C., 5% CO2, then 5 ml of COS-1 cell growth medium is applied and the transfection is allowed to proceed overnight. The following day, cells are trypsinized (0.2% trypsin, 1 mM EDTA, Gibco-BRL), and cells containing common transfectants are pooled. […] The cells are then used for corresponding VEGFR-2/NP-1 complex formation and peptide blocking studies.
(§3) Cells are plated the day before experimentation at 200,000 cells per well in twelve well tissue culture plates (VWR) in 1 ml of growth medium specific for each cell type. On the day of experimentation, the cells were pre-equilibrated at 4° C. for 30 to 60 minutes in binding buffer (0.2% BSA, Sigma; 25 mM Hepes, Gibco; MEM, Gibco). […] The binding reaction is allowed to reach equilibrium for four hours at 4° C. with gentle agitation.
(§4) Unbound ligand is then removed by quickly washing three times with 5 ml ice cold BSA-free binding buffer (MEM, Gibco, 25 mM Hepes, Gibco). Cells are lysed by the addition of 250 μl of RIPS Buffer (previously described), and the lysed cells are transferred to 12×75 mm test tubes and counted using a gamma counter. Generation of competition curves and IC50 values are performed using the Prism software package (Graphpad Software Inc., San Diego, Calif.).

NP-1 = NP-1 (Homo sapiens, UniProt O14786); assay type: binding; set-up: the NP-1 cDNA used for these experiments would only produce the full-length receptor; expressed in transfected cells; host or cells: COS-1
Sequence of NP-1 (O14786 22-923): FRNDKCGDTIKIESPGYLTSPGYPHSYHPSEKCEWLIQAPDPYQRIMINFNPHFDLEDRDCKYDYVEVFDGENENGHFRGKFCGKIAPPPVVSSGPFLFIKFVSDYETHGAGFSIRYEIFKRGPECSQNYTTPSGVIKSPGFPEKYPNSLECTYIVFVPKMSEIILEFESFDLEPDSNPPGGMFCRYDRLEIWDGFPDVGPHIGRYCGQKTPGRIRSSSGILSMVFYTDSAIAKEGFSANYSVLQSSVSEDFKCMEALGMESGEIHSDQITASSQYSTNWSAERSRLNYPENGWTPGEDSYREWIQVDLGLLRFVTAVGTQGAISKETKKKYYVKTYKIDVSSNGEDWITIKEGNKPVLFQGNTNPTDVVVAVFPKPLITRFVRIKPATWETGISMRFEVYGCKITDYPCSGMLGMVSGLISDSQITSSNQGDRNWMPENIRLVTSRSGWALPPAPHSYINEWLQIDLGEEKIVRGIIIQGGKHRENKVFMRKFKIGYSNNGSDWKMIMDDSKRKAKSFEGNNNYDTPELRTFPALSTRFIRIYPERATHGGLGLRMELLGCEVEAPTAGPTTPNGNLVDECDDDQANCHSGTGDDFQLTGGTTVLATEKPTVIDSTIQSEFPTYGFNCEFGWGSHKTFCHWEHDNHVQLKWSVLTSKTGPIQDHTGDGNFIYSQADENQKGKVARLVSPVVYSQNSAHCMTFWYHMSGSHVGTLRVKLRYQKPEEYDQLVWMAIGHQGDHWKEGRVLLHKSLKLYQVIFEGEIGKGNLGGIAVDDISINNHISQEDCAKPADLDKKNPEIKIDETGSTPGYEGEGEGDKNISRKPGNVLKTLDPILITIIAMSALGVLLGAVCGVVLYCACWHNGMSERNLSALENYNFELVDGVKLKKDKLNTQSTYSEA
Procedure: as §1, §2, §3, §4

[1] = system: VEGF165 vascular growth response; assay: Mouse corneal pocket model; assay type: in vivo; set-up: key to Score #1 (subjective neovascular response score) / Score #2 (subjective neovascular response score) / Score #3 (subjective neovascular response score): subjective neovascular growth score, 0 to 6 scale
Procedure: A 0.2 μl aliquot of this solution yielded a 4 μg dose. Human recombinant VEGF165 was purchased from R&D Systems (Minneapolis, Minn.), supplied in a lyophilized, carrier free form and reconstituted in the same water as the above peptide. A 0.2 μl aliquot of this solution yielded a 300 ng dose.
Male albino mice (Crl: CD-I (ICR) BR, VAF) from Charles River (Portage, N.C.), 20–24 grams were used. […] Compound adsorbed pellets were fabricated and implanted as described below. The treated eye was imaged on the day of implantation (day 0) and on days 4 and 7 following surgery. The growth response was subjectively graded on a scale from 0 to 6 by three independent graders blinded from the treatment grouping labels using the 3× printed image.
Polyvinyl alcohol (PVA) matrix material (Rippey, El Dorado Hills, Calif.) was cut into 1 cm×3 cm pieces and placed in a vibratome for sectioning on edge to produce 300 μm thick strips. The strips were individually sterilized by exposure to ethylene oxide. A strip was then cut under a dissecting microscope into approximately 300 μm cubes. The desired concentration of test compound or vehicle was adsorbed, sometimes utilizing a micro dessicant chamber. An HP auto sampler micro-syringe (Hamilton, P/N 7000.5) controlled the exact volume of the agent adsorbed onto the sponge. The sponge was then placed on a microscope slide prepared with a coating (20 μl spread over a 0.75 mm×1.5 mm area) of 12% hydron (Sigma, St. Louis, Mo.). The slide was protected in a clean petri dish and placed into a dessicator at 4° C. for a few hours or overnight. The dry, adsorbed sponges were mechanically flattened and overlaid with another aliquot of 12% hydron and again placed into a dessicator to cure the hydron coating. Fabrication of the adsorbed PVA sponge-hydron sandwich (referred to as a pellet) was done no more than 48 hours prior to implantation and the pellets were stored at 4° C. On the day of surgery and just prior to implantation, the pellet was trimmed so that the sponge remained encased by hydron (approximately 400 μm×400 μm×50 μm) and could be carefully removed from the slide.
Mice were anesthetized with 0.05 cc of Ketamine (140 mg/kg) and 0.03 cc Xylazine (17 mg/kg). A surgical plane of anesthesia was maintained by subsequent administration of half doses of the above compounds as needed. The whiskers on the animal's right side were trimmed down to ¼ of an inch. The right eye was bathed in an ophthalmic local anesthetic solution (Ophthaine, 0.5% tetracine hydrochloride) initially and throughout the procedure. The animal was placed on its side and the skin around the eye was gently retracted to expose the lateral and apical aspects of the cornea. The lateral limbic artery bifurcation was positioned horizontally. While stabilizing the eye against the ocular orbit, a vertical incision was made using a micro scalpel into the corneal tissue just lateral to the pupil. Care was taken to prevent accidental perforation of the anterior eye chamber. The incision depth was carefully deepened until a delicate and small lateral stab could be made (on axis with the lateral limbic artery bifurcation) with the micro scalpel into the middle of the corneal stroma. This lateral, intrastromal incision was enlarged by blunt dissection with very fine forceps until a pocket was formed from the vertical incision toward the limbus.
A hydron coated PVA sponge with adsorbed test compound (pellet) was prepared for implantation by carefully excising and removing it from the microscope slide. The pellet was introduced gently into the corneal pocket and advanced to within 1–2 mm of the limbus. The edges of the vertical corneal incision were approximated to encourage rapid healing. The imaging procedure (described below) was used to document the native limbic vascular architecture at the time of implantation. Post surgical recovery of the animal consisted of triple antibiotic ophthalmic ointment to prevent corneal drying, abrasion and infection. […]

Compound	Relative Affinity to Lead Peptide (RALP), VEGFR-2/NP-1 (VEGFR-2/NP-1)	Relative Affinity to Lead Peptide (RALP), NP-1 (NP-1)	also measured
C[C@@H]1NC(=O)CNC(=O)[C@H](CCCNC(=N)N)NC(=O)CNC(=O)[C@H](C)NC(=O)[C@@H](N)CSSC[C@@H](C(=O)N[C@@H](CCCNC(=N)N)C(=O)N[C@@H](CCC(=O)O)C(=O)N[C@@H](CCCCN)C(=O)N[C@@H](CCC(N)=O)C(=O)N[C@@H](CCCNC(=N)N)C(=O)N2CCC[C@H]2C(=O)N[C@@H](CO)C(=O)N[C@@H](CC(=O)O)C(=O)N[C@@H](CCCCN)C(=O)N2CCC[C@H]2C(=O)N[C@@H](CCCNC(=N)N)C(=O)N[C@@H](CCCNC(=N)N)C(=O)O)NC(=O)[C@H](CCCNC(=N)N)NC1=O [P6V8-3NCS1-7CCA1A5] (HELM PEPTIDE1{C.A.G.R.G.A.R.C.R.E.K.Q.R.P.S.D.K.P.R.R}$PEPTIDE1,PEPTIDE1,1:R3-8:R3$$$V2.0)	–	–	Relative Affinity to Lead (RALP), VEGFR-2/NP-1 (VEGFR-2/NP-1): 17.33; Relative Affinity to Lead (RALP), NP-1 (NP-1): 30.76
C[C@@H]1NC(=O)[C@@H](N)CSSC[C@@H](C(=O)N[C@@H](CCCNC(=N)N)C(=O)N[C@@H](CCC(=O)O)C(=O)N[C@@H](CCCCN)C(=O)N[C@@H](CCC(N)=O)C(=O)N[C@@H](CCCNC(=N)N)C(=O)N2CCC[C@H]2C(=O)N[C@@H](CO)C(=O)N[C@@H](CC(=O)O)C(=O)N[C@@H](CCCCN)C(=O)N2CCC[C@H]2C(=O)N[C@@H](CCCNC(=N)N)C(=O)N[C@@H](CCCNC(=N)N)C(=O)O)NC(=O)[C@H](CCCNC(=N)N)NC(=O)[C@H](CCCCN)NC(=O)CNC(=O)[C@H](CCCNC(=N)N)NC(=O)CNC1=O [P6V8-3NCS1-7CCA1] (HELM PEPTIDE1{C.A.G.R.G.K.R.C.R.E.K.Q.R.P.S.D.K.P.R.R}$PEPTIDE1,PEPTIDE1,1:R3-8:R3$$$V2.0)	–	–	Relative Affinity to Lead (RALP), VEGFR-2/NP-1 (VEGFR-2/NP-1): 1.97; Relative Affinity to Lead (RALP), NP-1 (NP-1): 14.35
C[C@@H]1NC(=O)CNC(=O)[C@H](CCCNC(=N)N)NC(=O)CNC(=O)[C@H](CCCCN)NC(=O)[C@@H](N)CSSC[C@@H](C(=O)N[C@@H](CCCNC(=N)N)C(=O)N[C@@H](CCC(=O)O)C(=O)N[C@@H](CCCCN)C(=O)N[C@@H](CCC(N)=O)C(=O)N[C@@H](CCCNC(=N)N)C(=O)N2CCC[C@H]2C(=O)N[C@@H](CO)C(=O)N[C@@H](CC(=O)O)C(=O)N[C@@H](CCCCN)C(=O)N2CCC[C@H]2C(=O)N[C@@H](CCCNC(=N)N)C(=O)N[C@@H](CCCNC(=N)N)C(=O)O)NC(=O)[C@H](CCCNC(=N)N)NC1=O [P6V8-3NCS1-7CCA5] (HELM PEPTIDE1{C.K.G.R.G.A.R.C.R.E.K.Q.R.P.S.D.K.P.R.R}$PEPTIDE1,PEPTIDE1,1:R3-8:R3$$$V2.0)	–	–	Relative Affinity to Lead (RALP), VEGFR-2/NP-1 (VEGFR-2/NP-1): 1.87; Relative Affinity to Lead (RALP), NP-1 (NP-1): 1.64
H-AGRGARAAEAQRPSDKPRR-OH [P6V8-3NCSA1,5,7,8, 10]	5.22	67.76	–
H-AGRGARRREKQRPSDKPRR-OH [P6V8-3NCSA1A5]	0.71	–	–
H-AGRGKARREKQRPSDKPRR-OH [P6V8-3NCSA1A6]	0.93	2.30	–
H-AGRGKRRREKQRPSDKPRR-OH [Peptide P6V8-3NCSA1]	–	0.99	–
H-KGAGKARREKQRPSDKPRR-OH [P6V8-3NCSA3A6]	8.20	48.8	–
H-KGAGKRRREKQRPSDKPRR-OH [Peptide P6V8-3NCSA3]	0.23	8.8	–
H-KGRGARRREKQRPSDKPRR-OH [Peptide P6V8-3NCSA5]	1.45	–	–
H-KGRGKARREKQRPSDKPRR-OH [Peptide P6V8-3NCSA6]	5.10	2.16	–
H-KGRGKRAAEAQAPSDAPAR-OH [P6V8-3NCSA7,8, 10, 12, 16, 18]	27.540	72.44	–
H-KGRGKRAAEAQRPSDKPRR-OH [P6V8-3NCSA7,8, 10]	3.27	14.25	–
H-KGRGKRAAEKQAPSDKPRR-OH [P6V8-3NCSA7,8, 12]	–	1.91	–
H-RRPAAAGKRRREKQRPSDKPRR-OH [AS-1, RRP AAA GKR RRE KQR PSD KPR R]	1	8	–
H-RRPKGRGKRRREKQRPSDAAAR-OH [AS-5]	0.71	1.6	–
RRPKGRGKRRREKQRPCDKPRR [Peptide P6V8, RRP KGR GKR RRE KQR P CDKPRR]	–	–	score of eye images by all graders ([1]; Day 7, P6V8 alone 4 μg, 0 = no change in limbic vasculature from Day 0): 0; vascular growth response to 300 ng of VEGF165 in the presence of peptide ([1]; P6V8 4 μg, mouse corneal micro pocket): attenuated; Score #1 (subjective neovascular response score) ([1]; grader 1, per animal, scale 0 to 6, pellet P6V8 4 μg and/or VEGF165 300 ng): 0; Score #2 (subjective neovascular response score) ([1]; grader 2, per animal, scale 0 to 6, pellet P6V8 4 μg and/or VEGF165 300 ng): 0; Score #3 (subjective neovascular response score) ([1]; grader 3, per animal, scale 0 to 6, pellet P6V8 4 μg and/or VEGF165 300 ng): 0
